# How the values were obtained:
# [1] = target: PIKfyve (Homo sapiens, UniProt Q9Y2I7); experiment: lipid kinase competition assay (scanLIPID panel, 22 lipid kinases); type: binding; design: purchased DiscoveRX (KINOMEscan scanLIPID panel; KdELECT); settings: 1 μM ESK981, only target among 22 phosphoinositide kinases
# Protocol: Lipid kinase competition assays for 22 lipid kinases, including clinically-relevant mutants, were performed using DiscoveRX KINOEscan® platform scanLIPID® panel. Detailed information is described on the DiscoveRX website (https://www.discoverx.com/technologies-platforms/competitive-binding-technology/kinomescan-technology-platform).
# [2] = tested on: LAMP1 in DU145 cells; experiment: LAMP1 immunofluorescence; type: cell-based, human; settings: 300 nM, 24 hours
# Protocol: For LAMP1 immunofluorescence, cells were seeded on coverslips overnight and treated with ESK981 at 300 nM for 24 hours. Coverslips were fixed with 10% paraformaldehyde and permeabilized with 10% saponin. Coverslips were then blocked with 10% goat serum and stained with LAMP1 antibody (Cat No. 9091, Cell Signaling Technology) and fluorescently-labelled secondary antibody. Confocal images were taken using a Nikon A1 confocal microscope.
# [3] = tested on: prostate cancer cell lines (VCaP, LNCaP, 22RV1, LNCaP-AR, PC3, DU145); experiment: long-term survival assay (14 days, crystal violet); type: cell-based, human; settings: Homo sapiens, 336 h; range across AR positive (VCaP, LNCaP, 22RV1, LNCaP-AR) and AR-negative (PC3, DU145) cell lines, two weeks; read-out: growth inhibitory IC50
# Protocol: Single cell suspensions were seeded into 96-well plates at a density of 1,000-30,000 cells per well. Long-term survival was determined after 14 days of drug incubation. Viable cells were fixed with 4% formaldehyde and subsequently stained with 1% crystal violet. IC50 was calculated using GraphPad Prism.
# [4] = target: Tie-2 (TEK) (Homo sapiens, UniProt Q02763); settings: cited from earlier work
# [5] = tested on: GFP-LC3-RFP-LC3ΔG-expressing Myc-CaP cells; experiment: autophagic flux detection in Myc-CaP cells; type: cell-based, mouse; settings: 24 hours
# Protocol: For autophagic flux detection, 10,000 cells were plated in 96-well plates and incubated with various compounds in complete medium for 24 hours. GFP and RFP fluorescence intensities were measured on a TECAN M1000 plate reader.
# Tie-2 (TEK), sequence (Q02763 23-1124, species assumed): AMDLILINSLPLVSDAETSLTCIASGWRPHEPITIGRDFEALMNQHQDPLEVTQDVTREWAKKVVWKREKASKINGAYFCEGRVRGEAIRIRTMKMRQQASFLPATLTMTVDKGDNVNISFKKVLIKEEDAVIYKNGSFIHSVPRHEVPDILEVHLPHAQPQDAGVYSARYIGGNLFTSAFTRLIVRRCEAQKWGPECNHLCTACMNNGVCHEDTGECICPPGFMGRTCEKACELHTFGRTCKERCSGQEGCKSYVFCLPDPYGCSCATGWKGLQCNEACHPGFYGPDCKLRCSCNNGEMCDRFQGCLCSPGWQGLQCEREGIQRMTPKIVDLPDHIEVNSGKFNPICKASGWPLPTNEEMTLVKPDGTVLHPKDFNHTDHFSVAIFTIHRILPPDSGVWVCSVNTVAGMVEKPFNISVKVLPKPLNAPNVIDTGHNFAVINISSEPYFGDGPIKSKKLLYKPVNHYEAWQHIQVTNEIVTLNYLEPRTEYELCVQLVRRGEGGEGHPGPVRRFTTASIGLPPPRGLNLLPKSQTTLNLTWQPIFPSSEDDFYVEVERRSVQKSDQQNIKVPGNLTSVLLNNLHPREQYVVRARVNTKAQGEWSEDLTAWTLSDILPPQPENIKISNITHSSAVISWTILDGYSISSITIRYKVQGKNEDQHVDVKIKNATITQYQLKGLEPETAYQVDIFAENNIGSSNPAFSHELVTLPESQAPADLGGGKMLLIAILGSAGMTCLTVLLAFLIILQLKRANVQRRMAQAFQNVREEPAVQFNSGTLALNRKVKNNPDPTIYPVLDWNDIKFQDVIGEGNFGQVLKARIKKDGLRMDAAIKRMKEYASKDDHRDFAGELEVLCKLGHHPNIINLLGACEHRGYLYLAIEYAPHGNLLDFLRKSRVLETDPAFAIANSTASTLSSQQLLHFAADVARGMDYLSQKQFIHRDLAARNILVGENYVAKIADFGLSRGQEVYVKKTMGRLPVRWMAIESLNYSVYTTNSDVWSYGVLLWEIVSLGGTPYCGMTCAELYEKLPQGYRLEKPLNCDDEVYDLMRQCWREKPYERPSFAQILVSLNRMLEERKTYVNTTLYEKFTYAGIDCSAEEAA
# PIKfyve, sequence (Q9Y2I7 whole entry): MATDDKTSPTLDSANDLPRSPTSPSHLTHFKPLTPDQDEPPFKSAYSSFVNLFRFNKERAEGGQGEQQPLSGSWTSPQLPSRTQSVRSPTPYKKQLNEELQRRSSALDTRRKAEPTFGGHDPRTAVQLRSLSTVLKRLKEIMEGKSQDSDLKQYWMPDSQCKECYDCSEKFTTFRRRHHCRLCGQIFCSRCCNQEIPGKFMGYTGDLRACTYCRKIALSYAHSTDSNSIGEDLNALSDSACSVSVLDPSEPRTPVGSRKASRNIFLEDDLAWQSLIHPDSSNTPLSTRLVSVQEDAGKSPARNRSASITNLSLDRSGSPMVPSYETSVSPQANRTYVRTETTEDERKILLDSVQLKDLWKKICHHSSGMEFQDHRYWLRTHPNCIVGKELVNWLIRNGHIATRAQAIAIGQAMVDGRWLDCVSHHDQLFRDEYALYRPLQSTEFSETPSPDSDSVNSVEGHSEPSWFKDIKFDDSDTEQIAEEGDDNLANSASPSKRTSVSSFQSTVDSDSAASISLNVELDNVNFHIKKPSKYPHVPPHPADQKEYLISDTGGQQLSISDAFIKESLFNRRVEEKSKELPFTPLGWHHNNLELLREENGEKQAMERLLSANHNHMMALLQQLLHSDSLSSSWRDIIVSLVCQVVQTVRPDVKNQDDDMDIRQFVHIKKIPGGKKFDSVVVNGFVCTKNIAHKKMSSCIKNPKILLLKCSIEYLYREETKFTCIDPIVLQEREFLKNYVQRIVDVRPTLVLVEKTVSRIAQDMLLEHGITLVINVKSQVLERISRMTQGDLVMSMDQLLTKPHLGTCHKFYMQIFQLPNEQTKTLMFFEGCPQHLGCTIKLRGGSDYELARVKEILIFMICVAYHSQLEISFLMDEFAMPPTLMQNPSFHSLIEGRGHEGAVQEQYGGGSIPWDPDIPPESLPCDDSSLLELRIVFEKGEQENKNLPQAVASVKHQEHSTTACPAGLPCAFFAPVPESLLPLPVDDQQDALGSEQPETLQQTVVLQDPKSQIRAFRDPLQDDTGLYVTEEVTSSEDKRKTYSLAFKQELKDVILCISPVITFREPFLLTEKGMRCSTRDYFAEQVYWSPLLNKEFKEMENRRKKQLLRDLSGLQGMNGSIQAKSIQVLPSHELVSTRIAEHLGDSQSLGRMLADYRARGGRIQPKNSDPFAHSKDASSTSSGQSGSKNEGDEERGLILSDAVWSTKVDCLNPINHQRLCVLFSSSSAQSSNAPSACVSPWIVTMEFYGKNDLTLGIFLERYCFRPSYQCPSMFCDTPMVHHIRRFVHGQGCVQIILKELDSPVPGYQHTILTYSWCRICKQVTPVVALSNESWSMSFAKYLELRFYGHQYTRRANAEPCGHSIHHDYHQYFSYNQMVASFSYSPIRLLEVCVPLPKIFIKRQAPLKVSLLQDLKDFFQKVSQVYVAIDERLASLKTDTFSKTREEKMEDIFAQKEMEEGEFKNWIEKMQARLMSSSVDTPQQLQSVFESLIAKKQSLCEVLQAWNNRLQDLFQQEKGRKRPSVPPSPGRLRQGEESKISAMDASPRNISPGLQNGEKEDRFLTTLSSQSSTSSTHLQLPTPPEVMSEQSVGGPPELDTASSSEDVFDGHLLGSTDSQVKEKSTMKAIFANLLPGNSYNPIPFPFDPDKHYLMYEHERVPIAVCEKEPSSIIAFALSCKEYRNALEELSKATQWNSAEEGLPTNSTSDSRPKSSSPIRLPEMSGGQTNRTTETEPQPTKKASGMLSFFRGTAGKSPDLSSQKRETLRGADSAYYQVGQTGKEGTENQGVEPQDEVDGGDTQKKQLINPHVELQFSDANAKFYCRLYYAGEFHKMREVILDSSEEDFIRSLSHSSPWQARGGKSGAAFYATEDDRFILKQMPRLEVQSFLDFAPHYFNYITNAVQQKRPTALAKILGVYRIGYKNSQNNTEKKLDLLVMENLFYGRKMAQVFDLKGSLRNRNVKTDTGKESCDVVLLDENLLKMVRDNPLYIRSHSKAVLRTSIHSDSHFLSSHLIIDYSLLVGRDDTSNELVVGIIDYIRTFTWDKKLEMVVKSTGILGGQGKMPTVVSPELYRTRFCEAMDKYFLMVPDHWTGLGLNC
compound,measurement,setting,value
"CC(C)Cn1c2ccc(Nc3ncccn3)cc2c2c3c(c4c(c21)CCc1nn(C)cc1-4)C(=O)NC3 [ESK981, 13-isobutyl-4-methyl-10-(pyrimidin-2-ylamino)-1,2,4,7,8,13-hexahydro-6H-indazolo[5,4-a]pyrrolo[3,4-c]carbazol-6-one]",competition in affinity binding screen,[1],completely competed away
same,LAMP1 staining of ESK981-induced vacuoles,[2],positive for the lysosomal marker LAMP1
same,IC50,[3],35 to 192 nM
same,activity against kinase,[4],potent activity
same,autophagic flux,[5],inhibited

# Reference: patent US20230364084A1, “METHODS FOR PREVENTING OR TREATING CONDITIONS RELATED TO PIKFYVE ACTIVITY” (The Regents of the University of Michigan, priority 2020, published 2023)
